Patent publication US20020028805A1, “Methods of inhibiting uterotrophic effects of estrogenic agents” (American Home Products Corporation, priority 2000, published 2002)
“Also recorded” adds a separate entry of the source.

Test system: immature rat uterus
Experiment: 3-day uterine model: uterine wet weight in immature rats
Settings: for Effect on ethinyl estradiol induced uterine wet weight increase (in words): 100 μg in combination with 0.5 μg ethinyl estradiol; for Effect on ethinyl estradiol induced uterine wet weight increase (in words) / Effect on raloxifene induced uterine stimulation (in words): three days; for % increase weight (vs. control) / Mean Wet Weight: 3 days; for Effect on raloxifene induced uterine stimulation (in words): co-administered with raloxifene (10 μg; 1 μmg [sic], ~0.2 mg/kg), 1-100 μg, 0.2 mg/kg; for Agonist effect on uterine wet weight (in words) / Increase in uterine wet weight over control: compound alone; for Agonist effect on uterine wet weight (in words): 10 and 100 μg/rat, three days of treatment, 1-way ANOVA; for Increase in uterine wet weight over control: for TSE-424 the highest increase seen
[1] = Experiment No. 1, 10 μg alone, s.c.
[2] = Experiment No. 1, 100 μg + EE (0.5 μg ethinyl estradiol), s.c.
[3] = Experiment No. 1, 100 μg alone, s.c.
[4] = Experiment No. 2, 1 μg + Raloxifene 10 μg
[5] = Experiment No. 2, 10 μg + Raloxifene 10 μg
[6] = Experiment No. 2, 10 μg alone, s.c.
[7] = Experiment No. 2, 50 μg + Raloxifene 10 μg
[8] = Experiment No. 2, 100 μg + Raloxifene 10 μg
[9] = Experiment No. 2, 100 μg alone, s.c.
[10] = Experiment No. 4, 10 μg alone, s.c.
[11] = Experiment No. 4, 100 μg alone, s.c.
[12] = Experiment No. 3, 10 μg alone, s.c.
[13] = Experiment No. 3, 100 μg + EE (0.5 μg ethinyl estradiol), s.c.
[14] = Experiment No. 3, 100 μg alone, s.c.
[15] = Experiment No. 4, 1 μg + Raloxifene 10 μg
[16] = Experiment No. 4, 10 μg + Raloxifene 10 μg
[17] = Experiment No. 4, 50 μg + Raloxifene 10 μg
[18] = Experiment No. 4, 100 μg + Raloxifene 10 μg

Cc1c(-c2ccc(O)cc2)n(Cc2ccc(OCCN3CCCCC3)cc2)c2ccc(O)cc12 [ERA-923, 2-(4-Hydroxy-phenyl)-3-methyl-1-(4-(2-piperidin-1-yl-ethoxy)-benzyl]-1H-indol-5-ol]
Effect on ethinyl estradiol induced uterine wet weight increase (in words): reduced ethinyl estradiol induced wet weight increases to control values; also recorded: reduced the increased wet weight stimulated by ethinyl estradiol to control
% increase weight (vs. control) [1]: 129.8%
Mean Wet Weight [1]: 39.9 mg
% increase weight (vs. control) [2]: 79.1%
Mean Wet Weight [2]: 24.3 mg
% increase weight (vs. control) [3]: 89.3%
Mean Wet Weight [3]: 27.5 mg
% increase weight (vs. control) [4]: 144.4%
Mean Wet Weight [4]: 38.7 mg
% increase weight (vs. control) [5]: 100.8%
Mean Wet Weight [5]: 27.0 mg
% increase weight (vs. control) [6]: 93.5%
Mean Wet Weight [6]: 25.1 mg
% increase weight (vs. control) [7]: 81.6%
Mean Wet Weight [7]: 21.9 mg
% increase weight (vs. control) [8]: 81.6%
Mean Wet Weight [8]: 21.9 mg
% increase weight (vs. control) [9]: 75.1%
Mean Wet Weight [9]: 20.1 mg
Effect on raloxifene induced uterine stimulation (in words): antagonized the uterine stimulation; also recorded: reduced to control values or less at all doses except for 1 μg
Agonist effect on uterine wet weight (in words): neither ERA-923 nor TSE-424 statistically increased uterine wet weight; also recorded: neither ERA-923 (Experiment No.1) nor TSE-424 (Experiment No. 3) treatments resulted in a statistical increase in uterine wet weight

C#C[C@]1(O)CC[C@H]2[C@@H]3CCc4cc(O)ccc4[C@H]3CC[C@@]21C [Ethinyl estradiol, 17α-ethinyl estradiol, reference compound]
% increase weight (vs. control) (Experiment No. 1, 0.5 μg s.c.): 205.7%
Mean Wet Weight (Experiment No. 1, 0.5 μg s.c.): 63.2 mg
% increase weight (vs. control) (Experiment No. 2, 0.5 μg s.c.): 317.3%
Mean Wet Weight (Experiment No. 2, 0.5 μg s.c.): 85.1 mg
% increase weight (vs. control) (Experiment No. 3, 0.5 μg s.c.): 262.1%
Mean Wet Weight (Experiment No. 3, 0.5 μg s.c.): 94.1 mg
% increase weight (vs. control) (Experiment No. 4, 0.5 μg s.c.): 406.4%
Mean Wet Weight (Experiment No. 4, 0.5 μg s.c.): 98.7 mg

O=C(c1ccc(OCCN2CCCCC2)cc1)c1c(-c2ccc(O)cc2)sc2cc(O)ccc12 [Raloxifene, raloxifene, reference compound]
% increase weight (vs. control) [6]: 172.4%
Mean Wet Weight [6]: 46.2 mg
% increase weight (vs. control) [9]: 145.8%
Mean Wet Weight [9]: 39.1 mg
% increase weight (vs. control) [10]: 185.2%
Mean Wet Weight [10]: 45.0 mg
% increase weight (vs. control) [11]: 175.9%
Mean Wet Weight [11]: 42.7 mg
Agonist effect on uterine wet weight (in words): statistically increased uterine wet weights at both tested doses
Increase in uterine wet weight over control: 75-85%

Cc1c(-c2ccc(O)cc2)n(Cc2ccc(OCCN3CCCCCC3)cc2)c2ccc(O)cc12 [TSE-424, 1-[4-(2-Azepan-1yl-ethoxy)-benzyl]-2-(4-hydroxy-phenyl)-3-methyl-1H-indol-5-ol]
Effect on ethinyl estradiol induced uterine wet weight increase (in words): reduced ethinyl estradiol induced wet weight increases to control values; also recorded: less than control values
% increase weight (vs. control) [12]: 92.4%
Mean Wet Weight [12]: 33.2 mg
% increase weight (vs. control) [13]: 77.7%
Mean Wet Weight [13]: 27.9 mg
% increase weight (vs. control) [14]: 81.9%
Mean Wet Weight [14]: 29.4 mg
% increase weight (vs. control) [15]: 170.4%
Mean Wet Weight [15]: 41.4 mg
% increase weight (vs. control) [16]: 142%
Mean Wet Weight [16]: 34.5 mg
% increase weight (vs. control) [10]: 135.0%
Mean Wet Weight [10]: 32.7 mg
% increase weight (vs. control) [17]: 139.3%
Mean Wet Weight [17]: 33.8 mg
% increase weight (vs. control) [18]: 136.5%
Mean Wet Weight [18]: 33.2 mg
% increase weight (vs. control) [11]: 109.4%
Mean Wet Weight [11]: 26.6 mg
Effect on raloxifene induced uterine stimulation (in words): antagonized the uterine stimulation; also recorded: reduced the increased wet weight stimulated by raloxifene to the highest increase seen with TSE-424 alone
Agonist effect on uterine wet weight (in words): neither ERA-923 nor TSE-424 statistically increased uterine wet weight; also recorded: neither ERA-923 (Experiment No.1) nor TSE-424 (Experiment No. 3) treatments resulted in a statistical increase in uterine wet weight
Increase in uterine wet weight over control: 35%
